Assays:
[1] = Selectivity index, ratio of CC50 for cytotoxicity in BHK cells to IC50 for antiviral activity against Dengue virus 1 DGL2 replicon infected in BHK cells; format: toxicity, cell-based; settings: hamster, read-out: Ratio CC50/IC50
[2] = Cytotoxicity in BHK cells assessed as reduction in cell viability incubated for 72 hrs by cell count reagent SF based microplate spectrophotometry; settings: cricetinae
dengue virus type 1 = assay: Antiviral activity against Dengue virus 1 DGL2 replicon infected in BHK cells assessed as inhibition of viral replicon RNA replication incubated for 72 hrs by Gaussia-luciferase reporter gene assay; format: functional, organism-based

| Compound | selectivity ratio [1] | CC50 at 72 h [2] [µM] | IC50 (dengue virus type 1) [µM] |
| --- | --- | --- | --- |
| C#Cc1c(C(N)=O)ncn1[C@@H]1O[C@H](CO)[C@@H](O)[C@H]1O | 4.59 | 1.24 | 0.27 |
| C#Cc1c(C(N)=O)ncn1[C@@H]1S[C@H](CO)[C@@H](O)[C@H]1O | > 3.42 | > 50 | 14.6 |
| C#Cc1c(C#N)ncn1[C@@H]1O[C@H](CO)[C@@H](O)[C@H]1O | 7.25 | 3.99 | 0.55 |
| C#Cc1c(C#N)ncn1[C@@H]1S[C@H](CO)[C@@H](O)[C@H]1O | > 7.61 | > 50 | 6.57 |
| C#Cc1c(C(N)=O)ncn1[C@@H]1[Se][C@H](CO)[C@@H](O)[C@H]1O | – | > 50 | > 20 |
| NC(=O)c1ncn([C@@H]2O[C@H](CO)[C@@H](O)[C@H]2O)n1 [RIBAVIRIN] | 7.35 | 49 | 6.66 |
| C#Cc1c(C#N)ncn1[C@@H]1[Se][C@H](CO)[C@@H](O)[C@H]1O | > 2.24 | > 50 | 22.3 |

Source: ChEMBL document CHEMBL4392858, “Synthesis and biological evaluation of novel imidazole nucleosides as potential anti-dengue virus agents” (Bioorg Med Chem, 2019)
